Activity calls are given as the source filed them. The rule behind the calls is not given here.

The EC50 is the concentration giving half of the maximal effect. As usually defined, the AUC(0-inf) is the area under the concentration-time curve extrapolated to infinity. What is called half-life is the time in which the quantity being followed falls by half. A word on the Tmax: it is the time at which the peak concentration occurs.

In data set [1] the target is T1, Hexokinase-4 (Rattus norvegicus) (UniProt P17712).
T1 sequence (whole entry): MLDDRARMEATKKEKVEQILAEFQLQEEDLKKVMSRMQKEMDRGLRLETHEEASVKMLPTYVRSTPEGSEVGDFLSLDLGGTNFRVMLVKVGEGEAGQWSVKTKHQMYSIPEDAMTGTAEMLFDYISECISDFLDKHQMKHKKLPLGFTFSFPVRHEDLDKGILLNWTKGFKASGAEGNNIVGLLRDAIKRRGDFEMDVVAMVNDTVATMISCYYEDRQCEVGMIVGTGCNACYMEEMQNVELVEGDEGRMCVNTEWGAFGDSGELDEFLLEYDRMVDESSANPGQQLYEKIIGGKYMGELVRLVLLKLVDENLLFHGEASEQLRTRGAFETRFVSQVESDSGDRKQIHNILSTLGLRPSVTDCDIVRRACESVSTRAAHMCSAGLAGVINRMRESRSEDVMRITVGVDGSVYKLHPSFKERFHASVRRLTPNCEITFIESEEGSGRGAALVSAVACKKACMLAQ
The data set is described as follows: Activation of glucokinase in rat INS1(832/13) cells assessed as increase in glucose sensitive insulin secretion at 20 uM after 2 hrs in presence of 5.5 mM glucose by AlphaLISA method relative to control. It counts as cell-based. (In Alpha technology, singlet oxygen from a donor bead excites a nearby acceptor bead.)

Data set [2] concerns the target T2, Hexokinase-4 (Homo sapiens, UniProt P35557).
T2 sequence (P35557 whole entry): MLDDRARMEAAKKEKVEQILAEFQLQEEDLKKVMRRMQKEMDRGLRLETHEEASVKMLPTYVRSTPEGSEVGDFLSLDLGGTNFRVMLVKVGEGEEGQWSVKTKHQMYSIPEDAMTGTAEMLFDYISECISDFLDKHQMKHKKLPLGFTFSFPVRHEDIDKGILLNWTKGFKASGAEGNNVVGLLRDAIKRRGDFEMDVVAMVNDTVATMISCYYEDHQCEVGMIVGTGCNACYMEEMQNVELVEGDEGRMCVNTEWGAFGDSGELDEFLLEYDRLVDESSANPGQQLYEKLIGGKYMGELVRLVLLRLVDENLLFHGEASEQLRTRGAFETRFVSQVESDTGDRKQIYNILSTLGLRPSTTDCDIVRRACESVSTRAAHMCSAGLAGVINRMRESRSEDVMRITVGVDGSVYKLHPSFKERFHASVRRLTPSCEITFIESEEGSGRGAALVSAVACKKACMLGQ
The experiment in a line: Activation of recombinant human liver glucokinase 2 assessed as assessed as reduction in Km for glucose in presence of 5 mM glucose by G6PDH coupled assay.

Data set [3] concerns INS1(832/13). The data set is described as follows: Cytoprotection in rat INS1(832/13) cells assessed as reduction in streptozocin induced beta cells apoptosis after 20 hrs by MTT based spectrophotometric method relative to control. On the set-up: scale not given: the % may be the effect or the level left. It is filed as functional. (Formazan colour is commonly taken as a measure of viable cells.)

For data set [4], the system named is INS1(832/13). The data set is described as follows: Cytoprotection in rat INS1(832/13) cells assessed as reduction in streptozocin induced beta cells apoptosis after 20 hrs by MTT based spectrophotometric method. It is filed as functional, cell-based. As to conditions: INS-1 832/13, 20 h.
For the next data set, the system named is Hepatocyte. The experiment in a line: Increase in glucose uptake in mouse primary hepatocytes assessed as glucose uptake level at 20 uM after 24 hrs by glucose oxidase method relative to control. It counts as functional.
For data set [5], the target named is T2, Hexokinase-4. The data set is described as follows: Activation of recombinant human liver glucokinase 2 assessed as […] in presence of 5 mM glucose by G6PDH coupled assay.
A short description of data set [6]: AUC (0 to infinity) in Sprague-Dawley rat at 10 mg/kg, po by LC-MS/MS analysis. It is filed as ADME, organism-based. The arrangement: dose 10 mg/kg, time infinity, route oral. As to conditions: in vivo.
The nature of data set [7]: Half life in Sprague-Dawley rat at 10 mg/kg, po by LC-MS/MS analysis. It is filed as ADME, organism-based. As to conditions: in vivo.
In data set [8] the test system is Mus musculus. The data set is described as follows: Antidiabetic activity in db/db mouse BKS.Cg-Dock7m+/+ Leprdb/J assessed as reduction in HbA1c level at 15 to 60 mg/kg/day, po for 5 weeks. It is filed as functional, organism-based.
Data set [9] relates to Mus musculus. The data set is described as follows: Toxicity in db/db mouse BKS.Cg-Dock7m+/+ Leprdb/J assessed as dyslipidemia by measuring effect on low density lipoprotein-cholesterol level at 15 to 60 mg/kg, po administered daily for 5 weeks. It counts as organism-based. As to conditions: in vivo, 840 h.
The test system of data set [10] is Mus musculus. The experiment in a line: Toxicity in C57BL/6J mouse assessed as decrease in fasting blood glucose level at 200 mg/kg, po administered as single dose measured over 6 hrs. The note with it: in vivo. It counts as organism-based.
Data set [11] relates to Mus musculus. The data set is described as follows: Antidiabetic activity in po dosed db/db mouse BKS.Cg-Dock7m+/+ Leprdb/J assessed as reduction in glucose excursion administered daily for 5 weeks measured up to 120 mins after over night fasting at fourth week by OGTT method. It counts as functional, organism-based.
The test system of data set [12] is Mus musculus. The data set is described as follows: Toxicity in db/db mouse BKS.Cg-Dock7m+/+ Leprdb/J assessed as dyslipidemia by measuring effect on cholesterol level at 15 to 60 mg/kg, po administered daily for 5 weeks. It is filed as organism-based. The note with it: in vivo, 840 h.
Data set [13] is described as follows: Tmax in Sprague-Dawley rat at 10 mg/kg, po by LC-MS/MS analysis. It counts as ADME, organism-based. The note with it: in vivo.
Data set [14] deals with Mus musculus. The data set is described as follows: Antidiabetic activity in db/db mouse BKS.Cg-Dock7m+/+ Leprdb/J assessed as reduction in fasting plasma glucose level at 15 to 60 mg/kg/day, po for 5 weeks. It counts as functional, organism-based.
In data set [15] the test system is Mus musculus. The data set is described as follows: Antidiabetic activity in dosed db/db mouse BKS.Cg-Dock7m+/+ Leprdb/J assessed as reduction in glucose AUC level at 30 to 60 mg/kg/day, po for 5 weeks measured up to 120 mins after over night fasting at fourth week during OGTT method. It is filed as functional, organism-based.
Data set [16] deals with Mus musculus. The data set is described as follows: Toxicity in db/db mouse BKS.Cg-Dock7m+/+ Leprdb/J assessed as dyslipidemia by measuring effect on high density lipoprotein-cholesterol level at 15 to 60 mg/kg, po administered daily for 5 weeks. It counts as organism-based. The note with it: in vivo, 840 h.

As to `COCC(C)Oc1cc(Oc2ccc(S(C)(=O)=O)cc2)cc(C(=O)Nc2nc3c(s2)CCCC3)c1` (stereo unspecified), the “fold change (FC)” value in data set [1] was “inactive”. For the same compound, the EC50 is 30 nM on Hexokinase-4 [2], 700 nM in the data set on INS1(832/13) [4] and 890 nM on Hexokinase-4 [5]. Further, the values for the Activity in the data set on INS1(832/13) [3] and in the data set on Hepatocyte were 66% and 31%, respectively.
On to `COC[C@H](C)Oc1cc(Oc2ccc(C(=O)N3CCC3)cc2)cc(C(=O)Nc2nc3c(s2)CN(C(=O)OC(C)(C)C)CC3)c1`, for which the area under the curve AUC(0-inf) in [6] was determined as 7580 ng·h/mL. The compound also showed a half-life in data set [7] of 30 min. Also, the result in the data set on Mus musculus [8], in the data set on Mus musculus [14] and with Mus musculus [15] was Active. Besides, the Activity entry in the data set on Mus musculus [9] was “Non-Toxic”; with Mus musculus [10] it was “Non-Toxic”; in the data set on Mus musculus [11] it was “Dose-dependent effect”; in the data set on Mus musculus [12] it was “Non-Toxic”; with INS1(832/13) [3], 161%; in the data set on Hepatocyte it was 15%. Further, in the data set on Mus musculus [16], the Activity result was “Non-Toxic”. Moreover, the fold change (FC) in [1] worked out at 2.69. In addition, the results for the EC50 on Hexokinase-4 [2], in the data set on INS1(832/13) [4] and at Hexokinase-4 [5] were 50 nM, 490 nM and 160 nM, respectively. Also, the Tmax in data set [13] came out at 34.8 min.
Consider `Cc1cnc(NC(=O)c2cc(Oc3cnc(C(=O)N(C)C)nc3)c3cc(C)oc3c2)cn1` [NERIGLIATIN], for which the Activity with INS1(832/13) [3] was determined as 114%. In addition, in the data set with INS1(832/13) [4], the half-maximal effective concentration (EC50) came to 2150 nM.
With `COCC(C)Oc1cc(Oc2ccc(C(=O)N3CCC3)cc2)cc(C(=O)Nc2nc3c(s2)CN(C(=O)OC(C)(C)C)CC3)c1` (stereo unspecified), in data set [1], the fold change (FC) was found to be 2.29. Also, the EC50 at Hexokinase-4 [2] amounted to 150 nM; with INS1(832/13) [4], 680 nM; on Hexokinase-4 [5], 290 nM. Besides, the values for the Activity with INS1(832/13) [3] and in the data set with Hepatocyte were 180% and 33%, respectively.
For the compound `COC[C@H](C)Oc1cc(Oc2ccc(C(=O)N3CCC3)cc2)cc(C(=O)Nc2nc3c(s2)CN(c2ccncn2)CC3)c1`, the fold change (FC) in data set [1] is 4.62. The Activity in the data set with Hepatocyte is listed as 16%. The 50% effective concentration (EC50) on Hexokinase-4 [5] was 490 nM.
In the same order, the values of `CC(C)Oc1cc(Oc2ccc(S(C)(=O)=O)cc2)cc(C(=O)Nc2nc3c(s2)CN(C(=O)OC(C)(C)C)CC3)c1` are “inactive”, 34% and 170 nM.
With `COCC(C)Oc1cc(Oc2ccc(S(C)(=O)=O)cc2)cc(C(=O)Nc2nc3c(s2)CCC3)c1` (stereo unspecified), in [1], the “fold change (FC)” value is “inactive”. For the same compound, in the data set with Hepatocyte, the Activity is reported as 31%. Moreover, the EC50 at Hexokinase-4 [5] was determined as 100 nM.
In the same order, the values of `COC[C@H](C)Oc1cc(Oc2ccc(C(=O)N3CCC3)cc2)cc(C(=O)Nc2nc3c(s2)CN(c2cc[nH]c(=O)c2)CC3)c1` are 5.51, “inactive” and 300 nM.
As to `COC[C@H](C)Oc1cc(Oc2ccc(C(=O)N3CCC3)cc2)cc(C(=O)Nc2nc3c(s2)CCN(C(=O)OC(C)(C)C)C3)c1`, the fold change (FC) in data set [1] is 2.24. Also, the Activity in the data set on Hepatocyte came to 13%. Moreover, the EC50 on Hexokinase-4 [5] amounted to 460 nM.

These data come from ChEMBL document CHEMBL4190311, “Discovery of cycloalkyl-fused N-thiazol-2-yl-benzamides as tissue non-specific glucokinase activators: Design, synthesis, and biological evaluation” (Eur J Med Chem, 2017).
